{
  "source": "patent US20070254324A1",
  "about": "“Method for determination of platelet function under flow conditions” (DADE BEHRING MARBURG GmbH, priority 2006, published 2007)",
  "type_in_all_cases": "cell-based, human",
  "key": {"[1]": {"test_system": "platelet function in whole blood", "assay": "Closure time under flow conditions, PFA-100 Col/ADP test cartridge", "details": "for Number of samples with closure times above the cut-off (n = 11): cut-off 115 seconds, ASA 30 μmol/L", "description": "(§1) Venous blood was taken from 11 healthy donors and anticoagulated with sodium citrate (3.2% buffered Na citrate).\n(§2) Aliquots of the citrated whole blood sample were treated in vitro with the P2Y(12) antagonist MRS 2395 (Sigma-Aldrich Chemie GmbH, Steinheim, Germany). For this purpose an ethanolic MRS 2395 stock solution (15 mg/mL) was mixed with the whole blood samples so that an end concentration of 100 μmol/L was obtained.\n(§3) Further aliquots of the citrated whole blood samples were treated in vitro with the COX-1 inhibitor acetylsalicylic acid (abbr.: ASA; Sigma-Aldrich Chemie GmbH, Steinheim, Germany). For this purpose an aqueous ASA stock solution (1 mg/mL) was mixed with whole blood samples so that an end concentration of 30 μmol/L was obtained.\n(§4) After addition of the reagents the blood samples were incubated at room temperature for 5 minutes.\n(§5) Venous blood was taken from healthy donors and anticoagulated with sodium citrate (3.2% buffered Na citrate). The closure time determination was carried out for each whole blood sample in the PFA-100® apparatus. Samples from 186 donors were determined in duplicate with a Col/Epi PFA-100® test cartridge [see Example 1d)] and a Col/ADP PFA-100® test cartridge [see Example 1d)].\n(§6) The reference ranges (normal range) for the Col/Epi closure time and the Col/ADP closure time were established in that the measurement value ranges determined in which 90% of the measurement values for the healthy subjects were found (90% central interval of the normal distribution of all measurements). This gave the following reference ranges for the closure times:\n(§7) The upper reference limit of the reference range was defined as cut-off, i.e. as threshold value, for a platelet dysfunction. If the closure time of a patient sample deviates from the reference range it can indicate a platelet dysfunction. This means Col/Epi closure times that are greater than 158 seconds and Col/ADP closure times that are greater than 115 seconds indicate the presence of a platelet dysfunction within the sense of a reduced aggregation efficiency.\n(§8) To determine the closure time using a Col/Epi PFA-100® test cartridge (2 μg of collagen and 10 μg of epinephrine on the partition member; 150 μm aperture diameter; Dade Behring Marburg GmbH, Marburg, Germany) and using a Col/ADP PFA-100® test cartridge (2 μg of collagen and 50 μg of ADP on the partition member; 150 μm aperture diameter; Dade Behring Marburg GmbH, Marburg, Germany) as measure of platelet function, whole blood samples described in Example 1a) were investigated in a PFA-100® apparatus (Platelet Function Analyzer-100, Dade Behring Marburg GmbH, Marburg, Germany).\n(§9) Aliquots of the samples described in 1a) were taken and mixed according to the invention either with prostaglandin E1 (abbr.: PGE1) or with forskolin (both purchased from Sigma-Aldrich Chemie GmbH, Steinheim, Germany) for activating intracellular adenylate cyclases. For this purpose, the samples were mixed with an ethanolic PGE1 stock solution (0.05 mg/mL) or with an ethanolic forskolin stock solution (5 mg/mL) to reach a final concentration of 12.5 nM PGE1 or a final concentration of 1 μM forskolin. Further aliquots of the samples described in 1a) were not mixed with an activator of intracellular adenylate cyclases and served as control.\n(§10) Then in each case 800 μl of the blood samples mixed with PGE1 or forskolin, or of the control samples were put into the reservoir of a Col/Epi or Col/ADP test cartridge (+37° C.) and incubated in the apparatus at +37° C. for 3 minutes. A partial vacuum of −40 mbar was generated by the apparatus, thus sucking the blood out of the reservoir through the capillary (diameter 200 μm) and finally through the opening (aperture) of the partition member into the measurement chamber. The closure time was determined as the time required until the aperture was closed by formation of a blood clot. […]"}, "[2]": {"test_system": "platelet function in whole blood", "assay": "Closure time under flow conditions, PFA-100 Col/Epi test cartridge", "details": "for Number of samples with closure times above the cut-off (n = 11): cut-off 158 seconds, ASA 30 μmol/L", "description": "as §1, §2, §3, §4, §5, §6, §7, §8, §9, §10"}, "[3]": {"test_system": "platelet aggregation in platelet rich plasma", "assay": "ADP induced light transmission aggregometry (according to Born)", "details": "100 μmol/L MRS 2395 in vitro; PRP; 5 μM ADP", "description": "as §1, §2, §4\nIn order to check whether the samples treated with MRS 2395 actually show a reduced platelet aggregation, platelet rich (PRP) and platelet poor (PPP) plasma was prepared from aliquots of the untreated and MRS 2395-treated whole blood samples described under Example 1a). Then the samples were treated with 5 μM ADP. The PPP samples were used as blank controls. The photometric measurement of the aggregation reaction was carried out in the automated coagulation apparatus BCT® (Dade Behring Marburg GmbH, Marburg, Germany) under continuous stirring (600 rpm). The platelet aggregation of the samples treated with MRS 2395 was reduced by a mean of 27% compared with the platelet aggregation of the untreated samples."}, "[4]": {"details": "normal untreated whole blood, 12.5 nM PGE1 or 1 μM forskolin"}, "[5]": {"details": "+12.5 nM PGE1, MRS 2395 100 μmol/L"}, "[6]": {"details": "+1 μM forskolin, MRS 2395 100 μmol/L"}, "[7]": {"details": "+1 μM forskolin, MRS 2395 100 μmol/L, listed as ASA"}, "[8]": {"details": "Control (no activator), MRS 2395 100 μmol/L"}},
  "data": [
    {"smiles": "CCCCC[C@H](O)/C=C/[C@H]1[C@H](O)CC(=O)[C@@H]1CCCCCCC(=O)O", "note": "[prostaglandin E1]", "values": [
      {"measurement": "prolongation of the closure times of the controls", "setting": "[1]; [4]", "result": "Neither the amount of forskolin used nor the amount of prostaglandin E1 used led to a significant prolongation"},
      {"measurement": "prolongation of the closure times of the controls", "setting": "[2]; [4]", "result": "significant prolongation"}
    ]},
    {"smiles": "CC(=O)Oc1ccccc1C(=O)O", "note": "[Acetylsalicylic acid, acetylsalicylic acid]", "values": [
      {"measurement": "Number of samples with closure times above the cut-off (n = 11)", "setting": "[1]; [5]", "result": 4},
      {"measurement": "Number of samples with closure times above the cut-off (n = 11)", "setting": "[1]; [6]", "result": 0},
      {"measurement": "Number of samples with closure times above the cut-off (n = 11)", "setting": "[1]; [7]", "result": "none"},
      {"measurement": "Number of samples with closure times above the cut-off (n = 11)", "setting": "[1]; [8]", "result": 1},
      {"measurement": "Number of samples with closure times above the cut-off (n = 11)", "setting": "[2]; [5]", "result": 11},
      {"measurement": "Number of samples with closure times above the cut-off (n = 11)", "setting": "[2]; +12.5 nM PGE1, MRS 2395 100 μmol/L, listed as ASA", "result": "all"},
      {"measurement": "Number of samples with closure times above the cut-off (n = 11)", "setting": "[2]; [6]", "result": 11},
      {"measurement": "Number of samples with closure times above the cut-off (n = 11)", "setting": "[2]; [7]", "result": "all"},
      {"measurement": "Number of samples with closure times above the cut-off (n = 11)", "setting": "[2]; [8]", "result": 8}
    ]},
    {"smiles": "CNc1nc(Cl)nc2c1ncn2CC(COC(=O)C(C)(C)C)COC(=O)C(C)(C)C", "note": "[MRS 2395, 2,2-dimethyl-propionic acid 3-(2-chloro-6-methylaminopurin-9-yl)-2-(2,2-dimethyl-propionyloxymethyl)-propyl ester]", "values": [
      {"measurement": "Number of samples with closure times above the cut-off (n = 11)", "setting": "[1]; [6]", "result": 10},
      {"measurement": "Number of samples with closure times above the cut-off (n = 11)", "setting": "[1]; [8]", "result": 2},
      {"measurement": "platelet aggregation reduced compared with the untreated samples (mean)", "setting": "[3]", "result": 27, "unit": "%"},
      {"measurement": "Number of samples with closure times above the cut-off (n = 11)", "setting": "[2]; [6]", "result": 9},
      {"measurement": "Number of samples with closure times above the cut-off (n = 11)", "setting": "[2]; [8]", "result": 3}
    ]}
  ]
}
